# Reference: US20250325552A1, “SUBSTITUTED THIADIAZOLYL DERIVATIVES AS DNA POLYMERASE THETA INHIBITORS” (IDEAYA Biosciences, Inc., priority 2020, published 2025)
# pIC50: −log10 of the molar value.
# Biological target: Polθ theta (1-899) (hPolQ) (Homo sapiens (Human), UniProt O75417)
# Assay: Biological Assay 1: Polθ ATPase activity, NADH oxidation-coupled enzymatic assay (10 nM enzyme, 30 min)
# Assay type: biochemical
# Conditions: Polθ (1-899) 10 nM, 100 μM ATP, 300 nM dT50 ssDNA; Examples 1 to 268; read-out: ATPase NADH coupling:Standard Screening:hPolQ IC50
# Procedure, shortened: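 ATP turnover was coupled to NADH oxidation and followed at 340 nm every minute for 30 min. Enzyme (residues 1-899, 10 nM) sat with compound for 15 min at room temperature before an equal-volume addition of 100 μM ATP plus 300 nM dT50 ssDNA. Progress-curve slopes from 10-point dilutions were fitted by a four-parameter model.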
# Polθ theta (1-899) (hPolQ), sequence (O75417 1-899): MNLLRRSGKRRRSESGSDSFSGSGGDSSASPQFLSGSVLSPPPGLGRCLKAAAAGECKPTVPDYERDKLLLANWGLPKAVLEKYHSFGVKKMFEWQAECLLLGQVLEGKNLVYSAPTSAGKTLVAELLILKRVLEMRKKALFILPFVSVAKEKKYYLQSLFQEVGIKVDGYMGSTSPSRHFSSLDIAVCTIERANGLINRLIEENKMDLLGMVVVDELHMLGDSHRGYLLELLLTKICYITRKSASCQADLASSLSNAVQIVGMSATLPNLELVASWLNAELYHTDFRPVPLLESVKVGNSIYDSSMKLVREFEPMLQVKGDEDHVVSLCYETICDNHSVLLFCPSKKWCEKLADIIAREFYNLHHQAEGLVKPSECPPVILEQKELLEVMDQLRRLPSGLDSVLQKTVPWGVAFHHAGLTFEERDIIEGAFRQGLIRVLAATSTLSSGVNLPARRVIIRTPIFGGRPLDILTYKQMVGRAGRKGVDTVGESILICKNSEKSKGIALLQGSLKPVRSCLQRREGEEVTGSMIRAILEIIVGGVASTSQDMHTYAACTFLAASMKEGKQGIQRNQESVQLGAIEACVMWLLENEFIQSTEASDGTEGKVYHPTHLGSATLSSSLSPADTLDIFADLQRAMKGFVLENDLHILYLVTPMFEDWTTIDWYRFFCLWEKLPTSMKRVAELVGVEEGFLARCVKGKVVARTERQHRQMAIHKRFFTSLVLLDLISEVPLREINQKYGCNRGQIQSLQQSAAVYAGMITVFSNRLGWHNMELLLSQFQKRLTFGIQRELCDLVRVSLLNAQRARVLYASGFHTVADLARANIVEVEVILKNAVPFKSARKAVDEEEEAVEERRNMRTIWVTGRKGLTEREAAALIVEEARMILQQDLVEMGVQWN
row,pIC50,SMILES
1,≥ 6.70,"COc1cnc(Cl)cc1-c1cc(C)ncc1C(=O)Nc1nnc(OCc2ccc(Cl)cn2)s1 [Example 8, 2′-chloro-N-(5-((5-chloropyridin-2-yl)methoxy)-1,3,4-thiadiazol-2-yl)-5′-methoxy-6-methyl-[4,4′-bipyridine]-3-carboxamide]"
2,≥ 6.70,"COc1cccc(F)c1-c1cc(C)ncc1C(=O)Nc1nnc(OCc2ccc(C(C)(C)O)cn2)s1 [Example 33, 4-(2-fluoro-6-methoxyphenyl)-N-(5-((5-(2-hydroxypropan-2-yl)pyridin-2-yl)methoxy)-1,3,4-thiadiazol-2-yl)-6-methylnicotinamide]"
3,5.00 to 6.00,"COc1cccc(F)c1-c1cccnc1C(=O)Nc1nnc(OCc2ccc(Cl)cn2)s1 [Example 19, N-(5-((5-chloropyridin-2-yl)methoxy)-1,3,4-thiadiazol-2-yl)-3-(2-fluoro-6-methoxyphenyl)picolinamide]"
4,≥ 6.70,"COc1cccc(F)c1-c1cc(C)ncc1C(=O)Nc1nnc(OCC2CCCn3nccc32)s1 (centres unmarked) [Example 135, 4-(2-fluoro-6-methoxyphenyl)-6-methyl-N-(5-(4H,5H,6H,7H-pyrazolo(1,5-a)pyridin-4-ylmethoxy)-1,3,4-thiadiazol-2-yl)pyridine-3-carboxamide]"
5,≥ 6.70,"COc1c(F)cccc1-c1cc(C)ncc1C(=O)Nc1nnc(OCc2ccc(Cl)cn2)s1 [Example 16, N-(5-((5-chloropyridin-2-yl)methoxy)-1,3,4-thiadiazol-2-yl)-4-(3-fluoro-2-methoxyphenyl)-6-methylnicotinamide]"
6,≥ 6.70,"Cc1cc(-c2cc(Cl)ncc2OC(F)F)c(C(=O)Nc2nnc(OC[C@@H]3CCOC3)s2)cn1 (single isomer, unassigned) [Example 258]"
7,≥ 6.70,"COc1ccccc1-c1cnccc1C(=O)Nc1nnc(OCC2CCCc3[nH]ncc32)s1 (centres unmarked) [compound 3, 3-(2-methoxyphenyl)-N-(5-(4,5,6,7-tetrahydro-1H-indazol-4-ylmethoxy)-1,3,4-thiadiazol-2-yl)pyridine-4-carboxamide]"
8,≥ 6.70,"COc1cnc(Cl)cc1-c1cc(C)ncc1C(=O)Nc1nnc(OC[C@]2(F)CCOC2)s1 (single isomer, unassigned) [Example 264]"
9,≥ 6.70,"COc1cnc(Cl)cc1-c1cc(C)ncc1C(=O)Nc1nnc(OC[C@H]2COC[C@@H]2C)s1 (single isomer, unassigned) [Example 268]"
10,6.30 to 6.70,"COc1ccccc1-c1cnccc1C(=O)Nc1nnc(OCC2CCOCC2)s1 [compound 1, 3-(2-methoxyphenyl)-N-(5-((tetrahydro-2H-pyran-4-yl)methoxy)-1,3,4-thiadiazol-2-yl)isonicotinamide]"
11,≥ 6.70,"COc1cccc(F)c1-c1cc(C)ncc1C(=O)Nc1nnc(OCc2ccc([C@H](C)O)cn2)s1 [Example 40, 4-(2-fluoro-6-methoxyphenyl)-N-(5-((5-((S)-1-hydroxyethyl)pyridin-2-yl)methoxy)-1,3,4-thiadiazol-2-yl)-6-methylnicotinamide]"
12,≥ 6.70,"COc1cnc(Cl)cc1-c1cc(C)ncc1C(=O)Nc1nnc(OC[C@H]2C[C@H](O)C2)s1 [Example 108, 2′-chloro-N-(5-(((1r,3r)-3-hydroxycyclobutyl)methoxy)-1,3,4-thiadiazol-2-yl)-5′-methoxy-6-methyl-[4,4′-bipyridine]-3-carboxamide]"
13,≥ 6.70,"COc1cnc(Cl)cc1-c1cc(C)ncc1C(=O)Nc1nnc(OC[C@H]2CC[C@H](OC)CC2)s1 [Example 137, 2′-chloro-5′-methoxy-N-(5-(((1r,4r)-4-methoxycyclohexyl)methoxy)-1,3,4-thiadiazol-2-yl)-6-methyl-[4,4′-bipyridine]-3-carboxamide]"
14,≥ 6.70,"COc1cnc(Cl)cc1-c1cc(C)ncc1C(=O)Nc1nnc(OCC23CCC(O)(CC2)C3)s1 [Example 218, 2′-chloro-N-(5-((4-hydroxybicyclo(2.2.1)heptan-1-yl)methoxy)-1,3,4-thiadiazol-2-yl)-5′-methoxy-6-methyl-(4,4′-bipyridine)-3-carboxamide]"
